Experimental data reported in patent US4988687A, “Cephalosporin derivatives, and antibacterial agents” (priority 1986, dated 1991).

Tests used:
S. aureus 209P NIHJ-JC1 = assay: agar plate dilution method, MIC against S. aureus 209P NIHJ-JC1; assay type: cell-based; details: Staphylococcus aureus, 16 h, read-out: Minimum Inhibitory Concentration (MIC)
Outline: (§1)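 MIC (μg/ml) read after 16 h at 37° C. on Mueller Hinton agar with graded compound levels; inoculum 10^6 CFU/ml from overnight Mueller Hinton broth culture, one loopful per strain.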

S. aureus JS1 = assay: agar plate dilution method, MIC against S. aureus JS1; assay type: cell-based; details: Staphylococcus aureus; S. aureus JS1 (methicilline resistant; lactamase-producing strain); 10^6 CFU/ml, 37° C., 16 hours; read-out: Minimum Inhibitory Concentration (MIC)
Outline: as §1

S. aureus BB5703 = assay: agar plate dilution method, MIC against S. aureus BB5703; assay type: cell-based; details: Staphylococcus aureus, BB5703, 16 h, read-out: Minimum Inhibitory Concentration (MIC)
Outline: as §1

S. epidermidis IAM12012 = assay: agar plate dilution method, MIC against S. epidermidis IAM12012; assay type: cell-based; details: Staphylococcus epidermidis, IAM12012, 16 h, read-out: Minimum Inhibitory Concentration (MIC)
Outline: as §1

M. luteus ATCC9341 = assay: agar plate dilution method, MIC against M. luteus ATCC9341; assay type: cell-based; details: Micrococcus luteus, ATCC9341, 16 h, read-out: Minimum Inhibitory Concentration (MIC)
Outline: as §1

C. freundii GN346/16 = assay: agar plate dilution method, MIC against C. freundii GN346/16; assay type: cell-based; details: Citrobacter freundii; C. freundii GN346/16; 10^6 CFU/ml, 37° C., 16 hours; read-out: Minimum Inhibitory Concentration (MIC)
Outline: as §1

E. coli NIHJ JC2 = assay: agar plate dilution method, MIC against E. coli NIHJ JC2; assay type: cell-based; details: Escherichia coli, NIHJJC2; E. coli NIHJ JC2; 10^6 CFU/ml, 37° C., 16 hours; read-out: Minimum Inhibitory Concentration (MIC)
Outline: as §1

E. coli CSH2 (RK1) = assay: agar plate dilution method, MIC against E. coli CSH2 (RK1); assay type: cell-based; details: Escherichia coli, 16 h, read-out: Minimum Inhibitory Concentration (MIC)
Outline: (§2)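 Overnight Mueller Hinton broth cultures were loop-inoculated onto Mueller Hinton agar containing serial antibiotic concentrations (inoculum 10^6 CFU/ml). Plates were incubated at 37° C. for 16 hours, and the MIC (μg/ml) was recorded.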

K. pneumoniae PCI-602 = assay: agar plate dilution method, MIC against K. pneumoniae PCI-602; assay type: cell-based; details: Klebsiella pneumoniae, PCI602, 16 h, read-out: Minimum Inhibitory Concentration (MIC)
Outline: as §1

E. coli CSH(RE45) = assay: agar plate dilution method, MIC against E. coli CSH(RE45); assay type: cell-based; details: Escherichia coli, 16 h, read-out: Minimum Inhibitory Concentration (MIC)
Outline: as §2

K. oxytoca GN10650 = assay: agar plate dilution method, MIC against K. oxytoca GN10650; assay type: cell-based; details: Klebsiella oxytoca, GN10650, 16 h, read-out: Minimum Inhibitory Concentration (MIC)
Outline: as §1

K. pneumoniae No. 42 = assay: agar plate dilution method, MIC against K. pneumoniae No. 42; assay type: cell-based; details: Klebsiella pneumoniae, NO.42, 16 h, read-out: Minimum Inhibitory Concentration (MIC)
Outline: as §1

P. vulgaris HX-19 = assay: agar plate dilution method, MIC against P. vulgaris HX-19; assay type: cell-based; details: Proteus vulgaris, HX19; P. vulgaris HX-19; 10^6 CFU/ml, 37° C., 16 hours; read-out: Minimum Inhibitory Concentration (MIC)
Outline: as §1

P. vulgaris No. 33 = assay: agar plate dilution method, MIC against P. vulgaris No. 33; assay type: cell-based; details: Proteus vulgaris; P. vulgaris No. 33 (lactamase-producing strain); 10^6 CFU/ml, 37° C., 16 hours; read-out: Minimum Inhibitory Concentration (MIC)
Outline: as §1

S. marcescens IAM 1184 = assay: agar plate dilution method, MIC against S. marcescens IAM 1184; assay type: cell-based; details: Serratia marcescens, IAM1184; S. marcescens IAM 1184; 10^6 CFU/ml, 37° C., 16 hours; read-out: Minimum Inhibitory Concentration (MIC)
Outline: as §1

C. freundii GN346 = assay: agar plate dilution method, MIC against C. freundii GN346; assay type: cell-based; details: Citrobacter freundii; C. freundii GN346 (lactamase-producing strain); 10^6 CFU/ml, 37° C., 16 hours; read-out: Minimum Inhibitory Concentration (MIC)
Outline: as §1

E. cloacae 963 = assay: agar plate dilution method, MIC against E. cloacae 963; assay type: cell-based; details: Enterobacter cloacae; E. cloacae 963; 10^6 CFU/ml, 37° C., 16 hours; read-out: Minimum Inhibitory Concentration (MIC)
Outline: as §1

E. cloacae Nek 39 = assay: agar plate dilution method, MIC against E. cloacae Nek 39; assay type: cell-based; details: Enterobacter cloacae, NEK39; E. cloacae Nek 39 (lactamase-producing strain); 10^6 CFU/ml, 37° C., 16 hours; read-out: Minimum Inhibitory Concentration (MIC)
Outline: as §1

E. coli GN5482 = assay: agar plate dilution method, MIC against E. coli GN5482; assay type: cell-based; details: Escherichia coli; E. coli GN5482 (lactamase-producing strain); 10^6 CFU/ml, 37° C., 16 hours; read-out: Minimum Inhibitory Concentration (MIC)
Outline: as §1

M. morganii GN5407 = assay: agar plate dilution method, MIC against M. morganii GN5407; assay type: cell-based; details: Morganella morganii; M. morganii GN5407 (lactamase-producing strain); 10^6 CFU/ml, 37° C., 16 hours; read-out: Minimum Inhibitory Concentration (MIC)
Outline: as §1

S. marcescens No. 16-2 = assay: agar plate dilution method, MIC against S. marcescens No. 16-2; assay type: cell-based; details: Serratia marcescens, NO.162, 16 h, read-out: Minimum Inhibitory Concentration (MIC)
Outline: as §1

Ps. aeruginosa IFO3445 = assay: agar plate dilution method, MIC against Ps. aeruginosa IFO3445; assay type: cell-based; details: Pseudomonas aeruginosa; Ps. aeruginosa IFO3445; 10^6 CFU/ml, 37° C., 16 hours; read-out: Minimum Inhibitory Concentration (MIC)
Outline: as §1

Ps. aeruginosa AK 109 = assay: agar plate dilution method, MIC against Ps. aeruginosa AK 109; assay type: cell-based; details: Pseudomonas aeruginosa, AK109; Ps. aeruginosa AK 109; 10^6 CFU/ml, 37° C., 16 hours; read-out: Minimum Inhibitory Concentration (MIC)
Outline: as §1

Ps. aeruginosa AKR17 = assay: agar plate dilution method, MIC against Ps. aeruginosa AKR17; assay type: cell-based; details: Pseudomonas aeruginosa, AKR17, 16 h, read-out: Minimum Inhibitory Concentration (MIC)
Outline: as §1

Ps. cepacia 23 = assay: agar plate dilution method, MIC against Ps. cepacia 23; assay type: cell-based, Pseudomonas cepacia; details: Burkholderia cepacia, 23, 16 h, read-out: Minimum Inhibitory Concentration (MIC)
Outline: as §1

Ps. maltophilia GN 12873 = assay: agar plate dilution method, MIC against Ps. maltophilia GN 12873; assay type: cell-based, Pseudomonas maltophilia; details: Stenotrophomonas maltophilia, GN12873; Ps. maltophilia GN 12873 (lactamase-producing strain); 10^6 CFU/ml, 37° C., 16 hours; read-out: Minimum Inhibitory Concentration (MIC)
Outline: as §1

A. calcoaceticus No. 4 = assay: agar plate dilution method, MIC against A. calcoaceticus No. 4; assay type: cell-based; details: Acinetobacter calcoaceticus; A. calcoaceticus No. 4; 10^6 CFU/ml, 37° C., 16 hours; read-out: Minimum Inhibitory Concentration (MIC)
Outline: as §1

[1] = tested on: sensitive and resistant Gram-positive bacteria and Gram-negative bacteria particularly glucose non-fermentative Gram-negative rods; assay: antibacterial activity and spectrum (in words); assay type: cell-based; details: in vitro
Description: The in vitro antibacterial activities of the compounds of the present invention against various microorganisms, were measured by the following agar plate dilution method. One platinum loopfull of each test microorganism incubated overnight in Mueller Hinton broth, was inoculated to Mueller Hinton agar (inoculum size: 10^6 CFU/ml) Such culture media containing various antibiotics in various concentrations were prepared After incubation at 37° C. for 16 hours, the minimum inhibitory concentrations (MIC: μg/ml) were measured. As comparative compounds, cefotaxime, oeftazidime and the compounds disclosed in Example 2 of Japanese Unexamined Patent Publication No. 215690/1985 e.g. sodium 7-[2-(2-aminothiazol-4-yl)-2-ethoxyiminoacetamido]-3-(1-carboxylatemethylpyridinio-4-yl)thiomethyl-3-cephem-4-carboxylate (hereinafter referred to simply as "Reference Example A") were employed.

Q: Which results are given for `CC(=O)Oc1ccc(C(O/N=C(\C(=O)NC2C(=O)N3C(C(=O)[O-])=C(CSc4cc[n+](CC(=O)O)cc4)CSC23)c2csc(N)n2)C(=O)O)cc1OC(C)=O` (stereo not drawn) [Example 6, disodium 7-[2-(2-aminothiazol-4-yl)-2-(α-carboxylate-3,4-diacetoxybenzyloxyimino)acetamido]-3-(1-carboxylatemethylpyridinio-4-yl)thiomethyl-3-cephem-4-carboxylate (syn-isomer)]?
A: MIC (S. aureus 209P NIHJ-JC1): 1.56 µg/mL; MIC (S. aureus JS1): 25 µg/mL; MIC (S. aureus BB5703): 6.25 µg/mL; MIC (S. epidermidis IAM12012): 3.12 µg/mL; MIC (M. luteus ATCC9341): 3.12 µg/mL; MIC (C. freundii GN346/16): 0.39 µg/mL; MIC (E. coli NIHJ JC2): 0.2 µg/mL; MIC (E. coli CSH2 (RK1)): 0.05 µg/mL; MIC (K. pneumoniae PCI-602): < 0.006 µg/mL; MIC (E. coli CSH(RE45)): 0.05 µg/mL; MIC (K. oxytoca GN10650): 0.2 µg/mL; MIC (K. pneumoniae No. 42): 0.1 µg/mL; MIC (P. vulgaris HX-19): 0.1 µg/mL; MIC (P. vulgaris No. 33): 0.1 µg/mL; MIC (S. marcescens IAM 1184): 0.2 µg/mL; MIC (C. freundii GN346): 25 µg/mL; MIC (E. cloacae 963): 0.39 µg/mL; MIC (E. cloacae Nek 39): 0.78 µg/mL; MIC (E. coli GN5482): 0.39 µg/mL; MIC (M. morganii GN5407): 0.2 µg/mL; MIC (S. marcescens No. 16-2): 1.56 µg/mL; MIC (Ps. aeruginosa IFO3445): 0.78 µg/mL; MIC (Ps. aeruginosa AK 109): 0.78 µg/mL; MIC (Ps. aeruginosa AKR17): 1.56 µg/mL; MIC (Ps. cepacia 23): 0.025 µg/mL; MIC (Ps. maltophilia GN 12873): > 100 µg/mL; MIC (A. calcoaceticus No. 4): 0.39 µg/mL; antibacterial activities and antibacterial spectrum (in words) [1]: excellent antibacterial activities and a broad antibacterial spectrum
